Reference: patent publication US12121498B2 (priority 2018, dated 2024)

Tests used:
[1] = in vivo; type: in vivo, SD rats; settings: rats; for concentration at 5 min / concentration at 15 min / concentration at 30 min / concentration at 1 h / concentration at 2 h / concentration at 4 h: SD, rat, in vivo, iv, average, read-out: Drug concentrations in brain tissue; for concentration at 5 min: 5 min after administration; for concentration at 15 min: 15 min after administration; for concentration at 30 min: 30 min after administration; for concentration at 1 h: 1 h after administration; for concentration at 2 h: 2 h after administration; for concentration at 4 h: 4 h after administration
Protocol: 1. Comparative Assay for the Distribution of Compound XA-1-7 and Dipropofol (3,3′,5,5′-Tetraisopropyl Biphenyl-4,4′-Diol) in the Brain Tissue of Rats after Intravenous Administration
72 SD rats, each weighing 200 to 220 g, were randomly divided into 12 groups (6 per group at a time), and fasted for 12 hours before administration. Compound XA-1-7 or dipropofol was injected intravenously at a dose of 45 mg/kg, and the rats were sacrificed at 5 min, 15 min, 30 min, 1 h, 2 h, and 4 h after administration, immediately after which the brain tissue was removed, rinsed with ice-cold distilled water, blotted up, and cryopreserved at −40° C. The concentrations of Compound XA-1-7 or dipropofol in the brain tissue of rats at different time points after administration were measured by LC-MS/MS.

[2] = molecular target: GABAA, Chloride Channel, TBPS; experiment: Radioligand ([35S]TBPS)-receptor competitive binding assay for GABAA receptor; set-up: species or system Rat; settings: for IC50: [35S]TBPS, test concentration 30, 10, 3, 1, 0.3 uM; for Affinity for the GABAA receptor: result in words, compared with dipropofol

Structure (SMILES)	concentration at 5 min ([1]; i.v. 45 mg/kg)	concentration at 15 min ([1]; i.v. 45 mg/kg)	concentration at 30 min ([1]; i.v. 45 mg/kg)	concentration at 1 h ([1]; i.v. 45 mg/kg)	concentration at 2 h ([1]; i.v. 45 mg/kg)	concentration at 4 h ([1]; i.v. 45 mg/kg)	Concentration in the brain tissue relative to that of the dipropofol ([1]; 5 minutes after intravenous injection, 45 mg/kg)	AUC0-4 h in the brain tissue relative to that of the dipropofol ([1]; i.v. 45 mg/kg)	Peak time of the concentration in the brain tissue ([1]; i.v. 45 mg/kg)	Delivering speed into the brain and level in the brain compared with dipropofol ([1]; intravenous administration at the same dosage, result in words)	IC50 [2]	Affinity for the GABAA receptor [2]
CCCc1cc(-c2cc(C(C)C)c(O)c(C(C)C)c2)cc(CCC)c1O [Compound 1, 3,5-diisopropyl-3′,5′-dipropyl-[1,1′-biphenyl]-4,4′-diol]	37600 ng/g	39600 ng/g	38100 ng/g	33900 ng/g	24600 ng/g	6870 ng/g	about 3 times	about 1.36 times	15 min	significantly higher	1820 nM	high affinity
CCCc1cc(-c2cc(C(C)C)c(O)c(C(C)C)c2)cc(C(C)C)c1O [Compound 2, 3,3′,5-triisopropyl-5′-propyl-biphenyl-4,4′-diol]	–	–	–	–	–	–	–	–	–	–	2110 nM	high affinity
CCCc1cc(-c2cc(CCC)c(O)c(C(C)C)c2)cc(CCC)c1O [Compound 3, 3-isopropyl-3′,5,5′-tripropyl-biphenyl-4,4′-diol]	–	–	–	–	–	–	–	–	–	–	2690 nM	high affinity
CC(C)c1cc(-c2cc(C(C)C)c(O)c(C(C)C)c2)cc(C(C)C)c1O [Dipropofol, 3,3′,5,5′-tetraisopropylbiphenyl-4,4′-diol, reference compound]	12800 ng/g	24100 ng/g	32500 ng/g	26600 ng/g	17900 ng/g	5520 ng/g	–	–	30 min	–	2060 nM	–
